According to patent EP1059033A1, “INDUSTRIAL ANTIBACTERIAL/ANTIFUNGAL AGENTS, ALGICIDES AND ANTI-BIOLOGICAL ADHESION AGENTS CONTAINING BENZYLAMINES” (Nissan Chemical Industries, Ltd., priority 1998, dated 1999):
≈ marks a conversion by molar mass, not a printed value. Like-named read-outs stand apart in the source and are kept apart here.

Assays:
[1] = system: Trichophyton mentagrophytes; format: cell-based; conditions: 72 h, 100 ppm
Description: 31.3 ml of Trichophyton mentagrophytes to be tested was added to 125 ml of a potato dextrose agar culture medium (Nissui Seiyaku Co.). The medium was stirred not to foam the solutions, poured into plates uniformly and solidified.
Thereafter, predetermined amounts of the compounds of the invention were weighted and diluted with acetone to predetermined concentrations.
Paper disks were impregnated with samples containing predetermined amounts of the compounds of the invention, laid on a filter, dried with air and placed on a plate containing test microbe at equal intervals.
Trichophyton mentagrophytes was cultured at 28 °C for 3 days in a thermostatic chamber and the diameter of each inhibiting zone was measured to evaluate the activity of each compound. Symbols in the table mean the followings; • A: Trichophyton mentagrophytes, • ++: strongly inhibiting zone (equal to or more than 21 mm) is observed, • +: inhibiting zone (10 to 20 mm) is observed, • -: no inhibiting zone is observed.

Aspergillus niger = experiment: Agar dilution MIC (Example 3); format: cell-based; conditions: 168 h, agar plate, 27 °C, 7 days
Description: (§1) Series of diluted samples (20000, 10000, 5000, 2500, 1250, 625, 313, 156, 78, 39 mg/l) of the compounds of the invention were prepared using dimethylsulfoxide. A sensitive culture medium-N (Nissui Seiyaku Co.) was used for bacteria and a potato dextrose agar culture medium (Nissui Seiyaku Co.) was used for fungi. 0.5 ml of each sample was added to and mixed with 9.5 ml of the culture medium, poured into a Petri dish and solidified to obtain a plate. As a result, the concentration of the compounds of the invention in the agar culture medium were 1000, 500, 250, 125, 62.5, 31.3, 15.6, 7.8, 3.9, 2.0 mg/l. The bacterium inoculated were cultured in a bouillon for the assay of sensitivity (Nissui Seiyaku Co.) at 37 °C for 20 hours, and the fungi were cultured in the potato dextrose agar culture medium (Nissui Seiyaku Co.) for 10 days and then a 10^6 CFU/ml suspension was prepared from each of them. A test bacteria or fungi suspension was streaked on an agar plate containing the compound of the present invention with platinum wire loop, and the agar plate was cultured at 37±1 °C for 18 to 20 hours for bacteria or at 27 °C for 7 days for fungi. A concentration at which no growth was seen was taken as minimum inhibitory concentration (MIC). Symbols in the tables mean the followings; • A: Bacillus subtilis, • B: Trichophyton mentagrophytes, • C: Staphylococcus aureus, • D: Aspergillus niger, • E: Penicillium funiculosum, • F: Candida albicans, • G: Micrococcus luteus, • H: Corynebacterium aquaticum, • I: Chaetomium globosum, • J: Fusarium moniliforme, • K: Saccharomyces cerevisiae, • L: Rhodotorula rubra, • M: Cladosporium cladosporioides, • N: Alternaria alternata.

Chaetomium globosum = experiment: Agar dilution MIC (Example 3); format: cell-based; conditions: 168 h, agar plate, 27 °C, 7 days
Description: as §1

[2] = system: Cladosporium cladosporioides; experiment: Agar dilution MIC (Example 3); format: cell-based; conditions: 168 h, agar plate, 27 °C, 7 days
Description: as §1

[3] = system: Corynebacterium aquaticum; experiment: Agar dilution MIC (Example 3); format: cell-based; conditions: Leifsonia aquatica, agar plate, 37±1 °C, 18 to 20 hours
Description: as §1

Penicillium funiculosum = experiment: Agar dilution MIC (Example 3); format: cell-based; conditions: Talaromyces funiculosus, 168 h, agar plate, 27 °C, 7 days
Description: as §1

Rhodotorula rubra = experiment: Agar dilution MIC (Example 3); format: cell-based; conditions: 168 h, agar plate, 27 °C, 7 days
Description: as §1

Saccharomyces cerevisiae = experiment: Agar dilution MIC (Example 3); format: cell-based; conditions: 168 h, agar plate, 27 °C, 7 days
Description: as §1

[4] = system: freshwater green alga (Selenastrum capricornutum); experiment: Inhibition of propagation of freshwater green alga (Example 4); format: cell-based; conditions: 500ppb, after 72 hours, cell number vs non-treated lot, read-out: Propagation inhibiting rate(%) 500ppb
Description: A predetermined amount of each of the compounds of the invention was dissolved in a culture medium containing 10^5 /ml of a freshwater green alga (Selenastrum capricornutum) at a logarithmic growth phase to prepare samples having a concentration of the compound of the invention in the medium of 500 ppb and 50ppb respectively. The samples were stationary cultured at 23±1 °C for […] under continuous illumination.
After 72 hours, the number of cells was measured using a hemacytometer to obtain propagation rate. The propagation inhibiting rate was calculated from comparison with the non-treated lot.

[5] = system: freshwater green alga (Chlorella pyrenoidosa); experiment: Inhibition of propagation of freshwater algae (Example 6); format: cell-based; conditions: Auxenochlorella pyrenoidosa, 500ppb, 168hr, read-out: Propagation inhibiting rate(%) 500ppb 168hr
Description: (§2) A predetermined amount each of the compounds of the invention was dissolved in a culture medium containing 10^5 /ml of a freshwater alga at a logarithmic growth phase to prepare samples having a concentration of the compound of the invention in the medium of 500 ppb and 50 ppb respectively. A shaking culture at 100 rpm was performed for […] under continuous illumination at 20±2 °C for freshwater diatom and at 23±2 °C for other algae.
(§3) After 72 hours and 168 hours, the […] of cells was measured using a hemacytometer to obtain propagation rate. The propagation inhibiting rate was calculated from comparison with the non-treated lot. Symbols in the tables mean the followings; • A: freshwater green alga (Chlorella pyrenoidosa), • B: freshwater blue-green alga (Microcystis aeruginosa), • C: freshwater diatom (Diatoma elongatum), • D: freshwater green alga (Scenedesmus pannonicus).

[6] = system: freshwater green alga (Scenedesmus pannonicus); experiment: as above; format: cell-based; conditions: Desmodesmus pannonicus, 500ppb
Description: as §2, §3

Alternaria alternata = experiment: Agar dilution MIC (Example 3); format: cell-based; conditions: 168 h, agar plate, 27 °C, 7 days
Description: as §1

Fusarium moniliforme = experiment: Agar dilution MIC (Example 3); format: cell-based; conditions: Fusarium verticillioides, 168 h, agar plate, 27 °C, 7 days
Description: as §1

[7] = system: freshwater blue-green alga (Microcystis aeruginosa); experiment: Inhibition of propagation of freshwater algae (Example 6); format: cell-based; conditions: 500ppb
Description: as §2, §3

Rhodotorula mucilaginosa = experiment: Agar dilution MIC (Example 2); format: cell-based; conditions: 168 h, agar plate, 27 °C, 7 days
Description: (§4) Series of diluted samples (20000, 10000, 5000, 2500, 2000, 1250, 625, 313, 156, 78, 39, 20, 10, 5, 2.5, 1.25 mg/l) of the compounds of the invention were prepared using dimethylsulfoxide. A sensitive culture medium-N (Nissui Seiyaku Co.) was used for bacteria and a potato dextrose agar culture medium (Nissui Seiyaku Co.) was used for fungi. 0.5 ml of each sample was added to and mixed with 9.5 ml of the culture medium, poured into a Petri dish and solidified to obtain a plate. As a result, the concentration of the compounds of the invention in the agar culture medium were 1000, 500, 250, 125, 100, 62.5, 31.3, 15.6, 7.8, 3.9, 2.0, 1.0, 0.5, 0.25, 0.125, 0.062 mg/l. The bacterium inoculated were cultured in a bouillon for the assay of sensitivity (Nissui Seiyaku Co.) at 37 °C for 20 hours, and the fungi were cultured in the potato dextrose agar culture medium (Nissui Seiyaku Co.) for 10 days and then a 10^6 CFU/ml suspension was prepared from each of them. A test bacteria or fungi suspension was streaked on an agar plate containing the compound of the present invention with platinum wire loop, and the agar plate was cultured at 37±1 °C for 18 to 20 hours for bacteria or at 27 °C for 7 days for fungi. A concentration at which no growth was seen was taken as minimum inhibitory concentration [MIC(mg/l)]. Symbols in the table mean the followings; • A: Bacillus subtilis, • B: Trichophyton mentagrophytes, • C: Rhodotorula mucilaginosa.

[8] = system: Trichophyton mentagrophytes; experiment: Agar dilution MIC (Example 2); format: cell-based; conditions: 168 h, agar plate, 27 °C, 7 days
Description: as §4

Bacillus subtilis = experiment: Agar dilution MIC (Example 2); format: cell-based; conditions: agar plate, 37±1 °C, 18 to 20 hours
Description: as §4

[9] = system: Trichophyton mentagrophytes; experiment: Agar dilution MIC (Example 3); format: cell-based; conditions: 168 h, agar plate, 27 °C, 7 days
Description: as §1

[10] = system: seawater diatom [Nitzschia closterium]; experiment: Inhibition of propagation of seawater diatom (Example 5); format: cell-based; conditions: Cylindrotheca closterium, 72 h, read-out: Propagation inhibiting rate(%) 500ppb
Description: A predetermined amount of each of the compounds of the invention was dissolved in culture media containing 10^5 /ml of a seawater diatom [Nitzschia closterium] at a logarithmic growth phase to prepare samples having a concentration of the compound in the medium of 500 ppb. The samples were stationary cultured at 22±1 °C for […] under continuous illumination.
After 72 hours, cells were collected by centrifugation and disrupted by addition of methanol to extract chlorophyll, and the amount of chlorophyll was measured from absorbance using a spectrophotometer to obtain propagation rate. The propagation inhibiting rate was calculated from comparison with the non-treated lot.

blue mussel = experiment: Antifouling (adhesion repellent) activity against blue mussel (Example 7); format: in vivo, Mytilus edulis; parameters: key: ++: not adhered in the zone and strong repellent effect is observed; +: adhesion in zone is observed but most of them adhered out of zone and repellent effect is observed; -: adhered in and out of zone alike and repellent effect is not observed; conditions: seawater, dark, 3 hours
Description: The compound of the invention was completely dissolved in 1 ml of acetone and the resulting solution was uniformly applied to a 4 cm-diameter zone drawn on a test plate. A zone coated with acetone alone as blank and zones coated with 1.0 mg and 0.5 mg of copper sulfate as a comparison chemical were also prepared. After drying, four blue mussel having a shell length of about 2 to 2.5 cm were adhered around each zone using a rubber piece as a spacer. The thus prepared test plate was immersed in a water tank to which seawater ran and left to stand in the dark for 3 hours.
The adhesion controlling effect (adhesion repellent activity) was obtained from comparison with copper sulfate used as a comparison chemical.
The evaluation of adhesion repellent activity was based on "Evaluation method of adhesion repellent substance to marine adhesion organisms using Mytilus edulis" written by Kazuo Ina and Hideo Etoh (Chemistry and Biology, vol.28 (No.2), pp.132-138, 1990).
Symbols in the table mean the followings; • ++: not adhered in the zone and strong repellent effect is observed, • +: adhesion in zone is observed but most of them adhered out of zone and repellent effect is observed, • -: adhered in and out of zone alike and repellent effect is not observed.

[11] = 72hr, read-out: Propagation inhibiting rate (%) 500ppb 72hr
[12] = 168hr, read-out: Propagation inhibiting rate (%) 500ppb 168hr

SMILES | MIC (Aspergillus niger) [µg/mL] | MIC (Chaetomium globosum) [µg/mL] | MIC [3] [µg/mL] | MIC (Penicillium funiculosum) [µg/mL] | MIC (Rhodotorula rubra) [µg/mL] | MIC (Saccharomyces cerevisiae) [µg/mL] | MIC [8] [µg/mL] | Judgment (Target bacteria: A) [1] | MIC [2] [µg/mL] | inhibition at 0.5 ppm [4] [%] | inhibition at 0.5 ppm [5] [%] | inhibition at 0.5 ppm [6, 11] [%] | inhibition at 0.5 ppm [6, 12] [%] | MIC (Alternaria alternata) [µg/mL] | MIC (Fusarium moniliforme) [µg/mL] | other results
Cc1cccc(C)c1CN(C)Cc1ccc(C(C)(C)C)cc1 [Compound 5] | < 2 | 15.6 (≈ 52.8 µM) | 7.8 (≈ 26.4 µM) | 15.6 (≈ 52.8 µM) | 63 (≈ 213 µM) | 63 (≈ 213 µM) |  | ++ (strongly inhibiting zone (equal to or more than 21 mm) is observed) | 31.3 (≈ 106 µM) | 75 | 62 | 76 | 78 | 125 (≈ 423 µM) | 7.8 (≈ 26.4 µM) | inhibition at 0.5 ppm ([7]; 72hr, read-out: Propagation inhibiting rate(%) 500ppb 72hr): 56%; inhibition at 0.5 ppm ([7]; 168hr, read-out: Propagation inhibiting rate(%) 500ppb 168hr): 62%
CN(Cc1ccc(C(C)(C)C)cc1)Cc1c(Cl)cccc1Cl [Compound 19] |  |  |  |  |  |  | 0.25 (≈ 0.743 µM) |  |  |  |  |  |  |  |  | MIC (Bacillus subtilis): 15.6 µg/mL (≈ 46.4 µM)
CN(Cc1ccc(C(C)(C)C)cc1)C1CCc2ccccc21 (stereo not drawn) [Compound 7] |  |  |  |  |  |  | 1 (≈ 3.41 µM) | ++ (strongly inhibiting zone (equal to or more than 21 mm) is observed) |  | 62 |  | 92 | 99 |  |  | MIC [9]: < 2 µg/mL; inhibition at 0.5 ppm [10]: 91%; Judgment (adhesion repellent activity against blue mussel) (blue mussel; Amount of chemical 2.0 mg on 4 cm-diameter zone): ++
O=S(=O)([O-])[O-].[Cu+2] [Copper sulfate] |  |  |  |  |  |  |  |  |  |  |  |  |  |  |  | Judgment (adhesion repellent activity against blue mussel) (blue mussel; Amount of chemical 0.5 mg on 4 cm-diameter zone): -; Judgment (adhesion repellent activity against blue mussel) (blue mussel; Amount of chemical 1.0 mg on 4 cm-diameter zone): +

Second part, led by results:

MIC (Aspergillus niger) [µg/mL] | MIC (Chaetomium globosum) [µg/mL] | MIC [3] [µg/mL] | MIC (Penicillium funiculosum) [µg/mL] | MIC (Rhodotorula rubra) [µg/mL] | MIC (Saccharomyces cerevisiae) [µg/mL] | MIC [8] [µg/mL] | SMILES | Judgment (Target bacteria: A) [1] | MIC [2] [µg/mL] | inhibition at 0.5 ppm [4] [%] | inhibition at 0.5 ppm [5] [%] | inhibition at 0.5 ppm [6, 11] [%] | inhibition at 0.5 ppm [6, 12] [%] | MIC (Alternaria alternata) [µg/mL] | MIC (Fusarium moniliforme) [µg/mL] | other results
7.8 (≈ 26.4 µM) | 63 (≈ 213 µM) | 31.3 (≈ 106 µM) | 31.3 (≈ 106 µM) | 125 (≈ 423 µM) | 125 (≈ 423 µM) |  | Cc1ccc(C)c(CN(C)Cc2ccc(C(C)(C)C)cc2)c1 [Compound 8] | ++ (strongly inhibiting zone (equal to or more than 21 mm) is observed) | 63 (≈ 213 µM) | 90 | 86 | 72 | 86 |  |  | 
7.8 (≈ 25.2 µM) | 31.3 (≈ 101 µM) | 7.8 (≈ 25.2 µM) | 15.6 (≈ 50.4 µM) | 31.3 (≈ 101 µM) | 15.6 (≈ 50.4 µM) | 2 (≈ 6.46 µM) | Cc1cc(C)c(CN(C)Cc2ccc(C(C)(C)C)cc2)c(C)c1 [Compound 20] |  |  | 63 |  |  |  | 15.6 (≈ 50.4 µM) | 31.3 (≈ 101 µM) | MIC (Rhodotorula mucilaginosa): 15.6 µg/mL (≈ 50.4 µM)
